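Compound exposure: 48 hours, 5 concentrations, 96-well plates. The concentration for 50% growth inhibition is given as GI50.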 The source made the active and inactive calls. Cut-off read from the data, not from the text of the source: active = GI50 up to about 1.1 µM and inactive = higher.
Columns and labels:
Assay in all cases: NCI anticancer screen, dose series, 48 h
SNB-75 = tested on: SNB-75
OVCAR-8 = tested on: OVCAR-8
NCI-H23 = tested on: NCI-H23
TK-10 = tested on: TK-10
K562 = tested on: K562
LOX IMVI = tested on: LOX IMVI
HCC 2998 = tested on: HCC 2998
U-251 = tested on: U-251
UACC-62 = tested on: UACC-62
SNB-19 = tested on: SNB-19
IGROV-1 = tested on: IGROV-1
M19-MEL = tested on: M19-MEL
SF-268 = tested on: SF-268
SF-539 = tested on: SF-539
OVCAR-3 = tested on: OVCAR-3
A549 = tested on: A549
M14 = tested on: M14
UO-31 = tested on: UO-31
SR = tested on: SR

Measured: GI50

C=C[C@H]1C=Cc2c(OC)cccc2[C@@H]1COP1(=S)NC(C)C(c2ccccc2)O1 (some centres not stated)
inactive: SNB-75 > 100 µM | OVCAR-8 81.5 µM | NCI-H23 50.1 µM | TK-10 > 100 µM | K562 37.1 µM | LOX IMVI 17.2 µM | HCC 2998 92 µM | U-251 86.3 µM | UACC-62 84.5 µM | SNB-19 > 100 µM | IGROV-1 > 100 µM | M19-MEL 75 µM | SF-268 62.1 µM | SF-539 > 100 µM | OVCAR-3 > 100 µM | A549 83.2 µM | M14 > 100 µM

COC(=O)[C@]1(C)CCC[C@@]2(C)C1CCC1=C[C@@]3(C(C)C)CC[C@]12OO3 (some centres not stated)
inactive: UO-31 18.5 µM | OVCAR-8 35.8 µM | NCI-H23 34.1 µM | SR 19.4 µM | TK-10 > 100 µM | K562 25.9 µM | LOX IMVI 24.7 µM | HCC 2998 31.3 µM | U-251 41.8 µM | UACC-62 25.3 µM | SNB-19 58.2 µM | IGROV-1 33.2 µM | M19-MEL 25.1 µM | SF-268 24.7 µM | SF-539 22.3 µM | OVCAR-3 27.8 µM | A549 30.6 µM | M14 22 µM

O=C1c2cccc3cccc(c23)C(=O)N1CCCN1CCN(CCCN2C(=O)c3cccc4cccc(c34)C2=O)CC1
inactive: UO-31 > 100 µM | SNB-75 > 100 µM | OVCAR-8 > 100 µM | NCI-H23 > 100 µM | TK-10 > 100 µM | K562 > 100 µM | LOX IMVI > 100 µM | HCC 2998 > 100 µM | U-251 > 100 µM | UACC-62 > 100 µM | SNB-19 > 100 µM | IGROV-1 > 100 µM | M19-MEL > 100 µM | SF-539 > 100 µM | OVCAR-3 > 100 µM | A549 > 100 µM | M14 > 100 µM

N#Cc1ccccc1Nc1ccccc1S
inactive: UO-31 28.2 µM | OVCAR-8 31.6 µM | NCI-H23 37.8 µM | SR 19.3 µM | TK-10 > 100 µM | K562 26 µM | LOX IMVI 17.5 µM | U-251 > 10 µM | UACC-62 19.1 µM | SNB-19 22.5 µM | IGROV-1 26.9 µM | M19-MEL 39.4 µM | SF-268 31.3 µM | SF-539 17.7 µM | A549 30.7 µM

COc1ccc(C)cc1-c1ccc(-c2cc(C)ccc2OC)o1
inactive: UO-31 > 100 µM | SNB-75 > 100 µM | OVCAR-8 > 100 µM | NCI-H23 > 100 µM | TK-10 > 100 µM | K562 > 100 µM | LOX IMVI > 100 µM | HCC 2998 > 100 µM | U-251 > 100 µM | UACC-62 > 100 µM | SNB-19 > 100 µM | IGROV-1 > 100 µM | M19-MEL 54.6 µM | SF-268 > 100 µM | SF-539 > 100 µM | OVCAR-3 > 100 µM | A549 > 100 µM | M14 > 100 µM

COC(=O)[C@@]12C3=NO[C@]1(C(=O)OC)C(O[Si](C)(C)C(C)(C)C)[C@@H](OC(C)=O)[C@@H](OC(C)=O)[C@@H]2[C@@H](OCc1ccccc1)CC3 (some centres not stated)
inactive: UO-31 > 19.9 µM | SNB-75 8.63 µM | OVCAR-8 > 61.1 µM | NCI-H23 4.9 µM | TK-10 > 100 µM | K562 5.26 µM | LOX IMVI 8.81 µM | HCC 2998 > 100 µM | U-251 8.99 µM | UACC-62 > 43.6 µM | SNB-19 8.81 µM | IGROV-1 > 29 µM | M19-MEL > 100 µM | SF-268 5.79 µM | SF-539 > 100 µM | OVCAR-3 13.5 µM | A549 28.3 µM | M14 > 100 µM

CCOc1ccc(NC(=O)CC2C(=O)Nc3ccccc3S2(=O)=O)cc1 (configuration not stated)
inactive: UO-31 > 100 µM | SNB-75 18.1 µM | OVCAR-8 39.4 µM | NCI-H23 > 100 µM | SR > 100 µM | TK-10 > 100 µM | K562 > 100 µM | LOX IMVI > 100 µM | HCC 2998 > 100 µM | U-251 33.2 µM | SNB-19 34.5 µM | IGROV-1 > 100 µM | M19-MEL > 100 µM | SF-268 42.7 µM | SF-539 55.1 µM | OVCAR-3 77.1 µM | A549 > 100 µM

C/C(=N/NC(=O)C[n+]1ccccc1)C(CN(CC(C)C)CC(C)C)C(=O)Nc1ccc(C)cc1C (configuration not stated)
inactive: UO-31 15.1 µM | OVCAR-8 > 100 µM | NCI-H23 > 100 µM | SR > 100 µM | TK-10 78.2 µM | K562 > 100 µM | HCC 2998 > 100 µM | UACC-62 > 100 µM | SNB-19 26.7 µM | IGROV-1 > 100 µM | M19-MEL > 100 µM | SF-268 > 100 µM | SF-539 > 100 µM | A549 > 100 µM | M14 > 100 µM

CN1N=CSC12C(=O)N(c1ccccc1)C(=O)N2c1ccccc1 (configuration not stated)
inactive: UO-31 > 100 µM | SNB-75 > 100 µM | OVCAR-8 > 100 µM | NCI-H23 > 100 µM | TK-10 > 100 µM | K562 > 100 µM | LOX IMVI > 100 µM | HCC 2998 > 100 µM | U-251 > 100 µM | UACC-62 > 100 µM | SNB-19 > 100 µM | IGROV-1 > 100 µM | M19-MEL > 100 µM | SF-268 > 100 µM | SF-539 > 100 µM | OVCAR-3 > 100 µM | A549 > 100 µM | M14 > 100 µM

CC(=O)OCC1OC(n2ccc(=O)[nH]c2=O)C(OC(C)=O)C(OC(C)=O)C1OC(C)=O (configuration not stated)
inactive: UO-31 > 100 µM | SNB-75 50.6 µM | OVCAR-8 > 100 µM | NCI-H23 > 100 µM | SR > 100 µM | TK-10 > 100 µM | K562 > 100 µM | LOX IMVI > 100 µM | HCC 2998 > 100 µM | U-251 > 100 µM | UACC-62 > 100 µM | SNB-19 > 100 µM | IGROV-1 > 100 µM | M19-MEL > 100 µM | SF-268 > 100 µM | OVCAR-3 > 100 µM | A549 > 100 µM | M14 > 100 µM

COc1nc(C(=O)O)c(Cl)c(OC)c1Cl
inactive: UO-31 > 100 µM | OVCAR-8 > 100 µM | NCI-H23 > 100 µM | SR > 100 µM | TK-10 > 100 µM | K562 > 10 µM | HCC 2998 > 100 µM | UACC-62 > 100 µM | SNB-19 > 100 µM | IGROV-1 > 100 µM | M19-MEL > 100 µM | SF-268 > 100 µM | SF-539 > 100 µM | OVCAR-3 > 100 µM | A549 > 100 µM | M14 > 100 µM
